This is an account of results in publication PMC5754413, “Mass balance, metabolic disposition, and pharmacokinetics of a single oral dose of regorafenib in healthy human subjects” (Cancer Chemotherapy and Pharmacology, 2017).

Read-outs that look alike come from different tables or passages of the source.

A short description of data set [1]: Safety assessments in healthy male subjects. The following applies: single 120 mg dose, four subjects. Format: in vivo, human. As to the method:
Blood pressure, pulse rate, electrocardiogram, physical examination, urine drug screening, and adverse events were evaluated throughout the study. The investigator obtained and recorded all the observed or reported adverse events, the severity (mild, moderate, or severe) of the events, and the relationship to study drug (in the investigator’s opinion).

A short description of data set [2]: Metabolite profiling in plasma by HPLC–LSC. Type of data set: in vivo, human. As for the experimental part: (§1) Blood and plasma: Blood samples (18.7 mL per each time point) were collected into nonbeaded lithium-heparinized tubes immediately pre-dose and at the following post-dose times: 0.5, 1, 1.5, 2, 2.5, 3, 4, 6, 9, 12, 16, 20, 24, 36, 48, 72, 96, 120, 144, 192, 240, and 288 h. For each sample, 1 mL of whole blood was stored at 4 °C for subsequent LSC and the remainder was processed for plasma. Individual 150 μL plasma samples for each time point were treated with formic acid (20 μL) and acetonitrile (450 μL). The samples were homogenized using a MS2 Minishaker® (IKA® Labortechnik, Staufen im Breisgau, Germany). The precipitated proteins were removed by centrifugation (5 min, 13,000 rpm, Biofuge). After concentrating the supernatant to about 80 μL, methanol (15 μL) was added. The individual samples were analyzed by HPLC with off-line radioactivity detection for metabolite profiling.
(§2) Pharmacokinetic outcome measures were generated by non-compartmental analysis of plasma concentration–time data using WinNonlin v4.1 (Pharsight Corporation) in conjunction with Kincalc v2.50 (Bayer AG). For individual subjects, primary outcome measures were maximum observed concentration (C max) and area under the concentration–time curve from time zero to infinity (AUC). […] The metabolite or regorafenib percentages were calculated by AUC(0–144)metabolite or regorafenib divided by AUC(0–144)radioactivity calculated from data obtained by HPLC–LSC analysis. Secondary outcomes were: time to C max (t max); apparent terminal elimination half-life (t ½); apparent volume of distribution during the terminal phase after extravascular administration (Vz/F); and total body clearance of drug calculated after extravascular administration (e.g., apparent oral clearance) (CL/F). AUC was estimated by the sum of partial areas: partial areas were calculated using the linear (if C i ≤ C i+1) or the logarithmic (if C i > C i+1) trapezoidal rules. The quality of the half-life calculation was assessed based on graphs showing the concentration–time profile. For reliable calculation of the half-life, at least three data points (concentration/time values) were used. The extrapolated portion of the AUC from the last measured data point C(t n) to infinity was calculated using the concentration C last,calc, which was calculated from the log-linear regression line used for half-life calculation rather than C(t n). In addition, appropriate pharmacokinetic parameters were derived from the total radioactivity-versus-time data in blood and plasma.
Due to the limited amount of radiocarbon associated with many of the samples, analyses were conducted using HPLC with fraction collection followed by off-line LSC. Samples were analyzed on a 150 × 3 mm Prodigy® ODS-3 100A, 3 µm column (Phenomenex, Aschaffenburg, Germany) protected by 8 × 3 mm Nucleosil® 100-3 C18 HD guard columns (Macherey–Nagel, Düren, Germany). Metabolites were separated with a gradient of aqueous potassium dihydrogen phosphate (1 g/L, pH 2.0, mobile phase A) versus acetonitrile (mobile phase B) at a flow rate of 0.5 mL/min (gradient: 0% B at 0 min, linear to 50% B at 10 min, linear to 60% B at 25 min, linear to 80% B at 26 min, plateau at 80% B to 30 min). The radiochemical profile of [^14C]regorafenib-derived radioactivity was determined for all urine samples, plasma extracts, and fecal homogenate extracts. Here, HPLC fractionation into 96-well plates was followed by off-line LSC (Wallac 1450 MicroBeta liquid scintillation analyzer) after adding 150 μL of scintillation cocktail to each well (Ultima-Flo™ AP, PerkinElmer; sampling rate: 10 s/well) using the Wallac 1450 Microbeta™ Plusliquid detector. Reconstructed radiochemical profiles were compiled from the resulting data.

A further data set relates to human feces. Nature of the data set: Incubation with human feces under anaerobic conditions. Format: in vitro ADME. To be noted: anaerobic conditions, ex vivo. As for the experimental part:
Under anaerobic conditions, a suspension of fresh human feces (about 0.5 g) in degassed water (final volume 5 mL) was treated with a solution of [^14C]-labelled metabolite M-2 or metabolite M-7 (1 mg/mL acetonitrile; final concentration: 10 μM). After incubation for 24 h at 37 °C, the incubation mixture was terminated by the addition of acetonitrile (2 mL). After centrifugation (5 min, 3000 rpm), the supernatant (25 μL) was directly subjected to HPLC with the respective off-line radioactivity detection. As negative controls, metabolites M-2 and M-7 were incubated in water for 24 h at 37 °C.

On the set-up of data set [3]: method as in PMID 22421192, PMID 22568966. To be noted: steady state; cited from earlier work.
Another data set relates to UGT1A9. Further details: method as in PMID 24896071, PMID 27734608. The following applies: in vitro data; cited from earlier work.
The next data set has as its system CYP3A4. Details: method as in PMID 24896071, PMID 27734608. To be noted: in vitro data; cited from earlier work.
Data set [4] in a line: Pharmacokinetics of regorafenib in plasma (HPLC–MS/MS) after a single oral 120 mg dose in healthy male subjects. Format: in vivo, human. To be noted: for half-life: plasma. As for the experimental part: Subjects were screened within the 28 days before scheduled drug administration and entered the clinical unit 1 day before drug administration. After an overnight fasting, subjects received a single oral 120 mg dose of regorafenib, containing approximately 100 μCi (3.7 MBq) [^14C]regorafenib, as a 6 mL solution in an aqueous PEG-based vehicle (Diluent Sol 30 mL oral, Bayer HealthCare AG) followed by 240 mL water. The associated radiation exposure fell within International Commission on Radiological Protection Guidelines for Category IIa studies (0.1–1 mSv).
as §1
Quantitative analysis of regorafenib in plasma was performed after protein precipitation using a fully validated HPLC–MS/MS assay. The analyses were performed in accordance with the 2001 FDA guidelines on bioanalytical validation. [^2H3,^15N]-regorafenib was used as internal standard (final concentration: 12.5 µg/L). The calibration range was from 2.00 µg/L to 2.00 mg/L. Quality control samples in the concentration range 5.00 µg/L to […] were determined with an accuracy of 98.1–103% and a precision of 1.55–10.0% (n = 6–8/concentration). All samples were stored at or below − 15 °C and analyzed within 14 days after sample receipt.
as §2

[5] abbreviates: male, human, regorafenib in plasma, LC–MS/MS, single oral 120 mg solution, N = 4, geometric mean (%CV).

Turning to `CNC(=O)c1cc(Oc2ccc(NC(=O)Nc3ccc(Cl)c(C(F)(F)F)c3)c(F)c2)ccn1` [Regorafenib, 4-[4-({[4-chloro-3-(trifluoromethyl)phenyl]carbamoyl}amino)-3-fluorophenoxy]-N-methylpyridine-2-carboxamide], the “Electrocardiograms, laboratory investigations, and vital signs” value in data set [1] was “no clinically relevant changes”. The Treatment-emergent adverse events result in data set [1] (event considered unrelated to study drug) is given as “mild, non-serious headache”. In addition, the “Percent of total AUC(0–144) of radioactivity in plasma” value in data set [2] (based on HPLC–LSC, mean) is listed as 57.4%. The “Mean total exposure, AUC(0–144 h)” value in data set [2] (plasma, HPLC–LSC) worked out at 46.89 mg-Eq·h/L. In addition, in the data set on human feces, the “Stability in feces / toward gut flora” value is listed as “stable”. Besides, in data set [3], the “Secondary maximum of plasma concentration–time profile” value is 6 to 8 h and the “Tertiary maximum of plasma concentration–time profile” value is about 24 h. For the same compound, the “Enzyme catalyzing conjugation with glucuronic acid” value in the data set on UGT1A9 is recorded as “by UGT1A9”. The “Enzyme catalyzing oxidative biotransformation” value with CYP3A4 is reported as “predominantly catalyzed by CYP3A4”. The half-life in data set [4] (human, oral, 120 mg, except for subject 003, read-out: Half-lives for regorafenib, range between subjects) lay in the range of 39 to 48 h. Also, the half-life in data set [4] (human, oral, 120 mg, subject 003, read-out: Calculated t 1/2 for regorafenib (converted)) is about 62 h. Also, in data set [4] (male, human, oral, 120 mg, regorafenib in plasma, geometric mean (%CV), N = 4, read-out: Vz/F), the Vd/F turned out to be 216 L. Further, in data set [4] (male, human, oral, 120 mg, regorafenib in plasma, median (range), N = 4), the time of peak concentration (Tmax) is 1.25 h. Besides, the half-life in data set [4] (male, human, oral, 120 mg, regorafenib in plasma, geometric mean (%CV), N = 4, read-out: t 1/2 (converted)) is 48.6 h. In data set [4] (setting [5]), this compound gave an AUC of 39000 ng·h/mL and a Cmax of 1580 ng/mL. The CL/F in data set [4] (regorafenib in plasma, geometric mean (%CV), N = 4) is recorded as 3.08 (34.9) L/h.

In general, Tmax refers to the time from dosing to the highest level. By AUC is commonly meant the area under the concentration-time curve, a measure of exposure. Usually Cmax stands for the maximum level reached in the sampled fluid or tissue.
